Assay results published in PMC4431183 (2015).

What was measured:
[1] = test system: HteloDNA (DNA, G4) GGGTTAGGGTTAGGGTTAGGG; test: visible absorbance titration at 405 nm; details: 100 mM K+, 10 mM Mg2+, 2 mM Na+; 50 mM MES-LiOH pH 7.0, 2 mM NaOH, 25 °C; 12.5 µM hemin
[2] = test system: dsDNA (DNA, duplex) AGAAGAGAAAGA/TCTTTCTCTTCT; test: visible absorbance titration at 405 nm; details: 100 mM K+, 10 mM Mg2+, 2 mM Na+; 50 mM MES-LiOH pH 7.0, 2 mM NaOH, 25 °C; 12.5 µM hemin; 0–250 µM dsDNA, change too small for Ka
[3] = test system: HteloDNA (DNA, G4) GGGTTAGGGTTAGGGTTAGGG; test: visible absorbance titration at 424 nm; details: 100 mM K+, 10 mM Mg2+; 50 mM MES-LiOH pH 7.0, 25 °C; 1.0 µM TMPyP4
[4] = test system: dsDNA (DNA, duplex) AGAAGAGAAAGA/TCTTTCTCTTCT; test: visible absorbance titration at 424 nm; details: 100 mM K+, 10 mM Mg2+; 50 mM MES-LiOH pH 7.0, 25 °C; 1.0 µM TMPyP4

Row | Ka [1] | binding [2] | Ka [3] | Ka [4] | Structure (SMILES)
1 | (5.5 ± 3.1) × 10^4 M^−1 | weak | – | – | C=CC1=C(C)C2=Cc3c(C=C)c(C)c4[n]3[Fe]([Cl])[n]3c(c(C)c(CCC(=O)O)c3=CC3=NC(=C4)C(C)=C3CCC(=O)O)=CC1=N2
2 | – | – | (1.2 ± 0.1) × 10^6 M^−1 | (1.8 ± 0.6) × 10^5 M^−1 | C[n+]1ccc(-c2c3nc(c(-c4cc[n+](C)cc4)c4ccc([nH]4)c(-c4cc[n+](C)cc4)c4nc(c(-c5cc[n+](C)cc5)c5ccc2[nH]5)C=C4)C=C3)cc1
